pIC50: −log10 of the molar value. Counter-ions that a name gives are not always drawn.
Assays:
[1] = target: ErbB2 V777L (Homo sapiens (Human), UniProt P04626, V777L); assay: ErbB enzyme assay (CisBio HTRF-KinEASE-TK), ErbB2 V777L; assay type: biochemical
Summary of the method: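 HTRF KinEASE-TK tyrosine-kinase read-out of substrate phosphorylation after a final 1 h at ambient temperature, from the 655/620 nm emission ratio.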

[2] = target: EGFR WT (Homo sapiens (Human), UniProt P00533); assay: ErbB enzyme assay (CisBio HTRF-KinEASE-TK), EGFR WT; assay type: biochemical; conditions: ATP at Km (25 μM), 1 h incubation
Chain of EGFR WT (P00533 25-1210): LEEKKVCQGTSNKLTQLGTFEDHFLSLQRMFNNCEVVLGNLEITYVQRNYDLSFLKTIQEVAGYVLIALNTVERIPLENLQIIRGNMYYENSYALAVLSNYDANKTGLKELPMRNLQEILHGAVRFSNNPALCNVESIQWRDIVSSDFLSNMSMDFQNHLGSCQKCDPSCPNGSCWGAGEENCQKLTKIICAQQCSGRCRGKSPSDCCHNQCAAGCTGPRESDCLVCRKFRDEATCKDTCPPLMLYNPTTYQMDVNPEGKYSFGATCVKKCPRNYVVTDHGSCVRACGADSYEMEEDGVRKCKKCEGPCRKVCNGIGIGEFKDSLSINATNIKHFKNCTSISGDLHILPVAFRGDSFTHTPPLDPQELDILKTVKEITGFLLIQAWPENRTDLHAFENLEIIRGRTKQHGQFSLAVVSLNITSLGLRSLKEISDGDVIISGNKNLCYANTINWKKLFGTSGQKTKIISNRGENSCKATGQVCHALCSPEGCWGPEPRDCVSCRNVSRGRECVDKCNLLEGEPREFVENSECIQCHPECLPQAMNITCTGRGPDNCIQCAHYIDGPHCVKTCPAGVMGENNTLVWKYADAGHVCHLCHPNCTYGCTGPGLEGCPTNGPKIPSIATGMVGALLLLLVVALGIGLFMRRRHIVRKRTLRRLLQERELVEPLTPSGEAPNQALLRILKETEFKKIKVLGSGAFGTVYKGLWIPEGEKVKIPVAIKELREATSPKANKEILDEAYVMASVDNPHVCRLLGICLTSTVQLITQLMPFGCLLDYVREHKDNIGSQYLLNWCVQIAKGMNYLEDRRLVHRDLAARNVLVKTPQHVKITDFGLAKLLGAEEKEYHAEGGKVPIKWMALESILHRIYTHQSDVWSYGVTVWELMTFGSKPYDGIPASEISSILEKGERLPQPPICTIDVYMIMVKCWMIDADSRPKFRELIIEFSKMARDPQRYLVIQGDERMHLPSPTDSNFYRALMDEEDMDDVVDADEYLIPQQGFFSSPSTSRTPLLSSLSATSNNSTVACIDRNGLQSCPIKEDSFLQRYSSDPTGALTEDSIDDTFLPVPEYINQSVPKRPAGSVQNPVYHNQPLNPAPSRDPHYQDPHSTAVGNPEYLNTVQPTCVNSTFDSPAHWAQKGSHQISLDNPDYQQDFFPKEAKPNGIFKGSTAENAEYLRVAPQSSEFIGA
Summary of the method: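 Three-fold DMSO serial dilutions were added to kinase reactions and incubated 1 h at room temperature. Quench used 62.5 nM Sa-XL665 plus 0.25×TK-Ab-Cryptate in detection buffer, followed by another 1 h. Substrate phosphorylation was then measured by dual-wavelength HTRF.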

Chain of ErbB2 V777L (P04626 23-1255 V777L): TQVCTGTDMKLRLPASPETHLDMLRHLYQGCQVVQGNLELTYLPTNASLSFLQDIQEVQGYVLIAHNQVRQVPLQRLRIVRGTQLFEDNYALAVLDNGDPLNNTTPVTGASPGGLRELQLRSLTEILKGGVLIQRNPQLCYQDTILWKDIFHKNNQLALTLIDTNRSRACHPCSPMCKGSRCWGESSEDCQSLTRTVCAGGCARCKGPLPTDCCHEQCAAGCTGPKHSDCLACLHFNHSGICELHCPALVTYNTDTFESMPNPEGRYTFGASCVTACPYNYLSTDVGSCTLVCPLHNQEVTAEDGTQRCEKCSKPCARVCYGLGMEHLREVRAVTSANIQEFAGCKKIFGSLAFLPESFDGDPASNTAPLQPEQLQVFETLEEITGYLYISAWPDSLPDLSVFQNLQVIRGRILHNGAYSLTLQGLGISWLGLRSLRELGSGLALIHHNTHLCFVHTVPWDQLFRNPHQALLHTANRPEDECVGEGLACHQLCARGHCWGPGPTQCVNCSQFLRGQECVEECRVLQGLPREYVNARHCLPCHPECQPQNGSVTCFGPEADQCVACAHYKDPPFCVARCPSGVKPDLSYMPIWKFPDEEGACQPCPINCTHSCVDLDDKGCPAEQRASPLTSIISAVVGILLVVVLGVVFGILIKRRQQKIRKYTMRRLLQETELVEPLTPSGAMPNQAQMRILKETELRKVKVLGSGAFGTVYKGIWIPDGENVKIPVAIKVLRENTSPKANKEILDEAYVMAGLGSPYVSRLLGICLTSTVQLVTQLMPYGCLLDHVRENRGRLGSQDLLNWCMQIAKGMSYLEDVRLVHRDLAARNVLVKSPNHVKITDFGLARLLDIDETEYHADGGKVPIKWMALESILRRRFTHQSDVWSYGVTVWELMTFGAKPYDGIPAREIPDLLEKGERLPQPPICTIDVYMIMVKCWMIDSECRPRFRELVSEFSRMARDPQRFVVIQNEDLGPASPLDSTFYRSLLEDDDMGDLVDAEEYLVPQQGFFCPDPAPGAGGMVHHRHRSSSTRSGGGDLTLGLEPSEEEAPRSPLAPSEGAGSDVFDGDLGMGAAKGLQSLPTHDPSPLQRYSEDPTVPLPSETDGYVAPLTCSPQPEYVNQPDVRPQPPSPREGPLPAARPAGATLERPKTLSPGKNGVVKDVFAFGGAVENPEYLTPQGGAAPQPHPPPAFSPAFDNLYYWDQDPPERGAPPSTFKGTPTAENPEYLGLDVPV

`C=CC(=O)N1C[C@H]2C[C@@H]1CN(c1ncc3ncnc(Nc4ccc(Oc5cc(F)c6c(c5)ncn6C)c(C)c4F)c3n1)C2` [Compound 167, 1-((1S,5R)-3-(8-((2-fluoro-4-((7-fluoro-1-methyl-1H-benzo[d]imidazol-5-y1)oxy)-3-methylphenyl)amino)pyrimido[5,4-d]pyrimidin-2-yl)-3,6-diazabicyclo[3.2.1]octan-6-yl)prop-2-en-1-one] was tested, and the pIC50 [1] was 6.30 to 7.00 and the pIC50 [2] was over 7.30.
For `Cc1c(Oc2ccc3c(c2)nnn3C)ccc(Nc2ncnc3cnc(N4CCN(C(=O)/C=C/CN5CC(F)C5)CC4)nc23)c1F` [Compound 59, (E)-1-(4-(8-((2-fluoro-3-methyl-4-((1-methyl-1H-benzo[d][1,2,3]triazol-5-yl)oxy)phenyl)amino)pyrimido [5,4-d]pyrimidin-2-yl)piperazin-1-yl)-4-(3-fluoroazetidin-1-yl)but-2-en-1-one], the pIC50 [1] was 6.30 to 7.00 and the pIC50 [2] was 6.30 to 7.00.
With `C=CC(=O)N1[C@@H]2COC[C@H]1CN(c1ncc3ncnc(Nc4ccc(Oc5ccc6c(c5)nnn6C)c(C)c4)c3n1)C2` [Compound 140, 1-((1R,5S)-7-(8-((3-methyl-4-((1-methyl-1H-benzo[d][1,2,3]triazol-5-yl)oxy)phenyl)amino)pyrimido [5,4-d]pyrimidin-2-yl)-3-oxa-7,9-diazabicyclo[3.3.1]nonan-9-yl)prop-2-en-1-one] the pIC50 [1] was 7.00 to 7.30 and the pIC50 [2] was 6.30 to 7.00.
In the case of `C=C(C)C(=O)N1CCN(c2ncc3ncnc(Nc4ccc(Oc5ccc6c(c5)nnn6C)c(C)c4)c3n2)CC1` [Compound 35, 2-methyl-1-(4-(8-((3-methyl-4-((1-methyl-1H-benzo[d][1,2,3]triazol-5-yl)oxy)phenyl)amino)pyrimido [5,4-d]pyrimidin-2-y1)piperazin-1-yl)prop-2-en-1-one], the pIC50 [1] was 6.00 to 6.30 and the pIC50 [2] was at most 6.00.
Work on `C=CC(=O)N1C[C@@H](C)N(c2ncc3ncnc(Nc4ccc(Oc5ccc6c(c5)nnn6C)c(C)c4)c3n2)C[C@H]1C` [Compound 186, 1-((2R,5R)-2,5-dimethyl-4-(8-((3-methyl-4-((1-methyl-1H-benzo[d][1,2,3]triazol-5-yl)oxy)phenyl)amino)pyrimido[5,4-d]pyrimidin-2-yl)piperazin-1-yl)prop-2-en-1-one] yielded a pIC50 [1] of 6.30 to 7.00 and a pIC50 [2] of at most 6.00.
With `C=CC(=O)NC1CCN(c2ncc3ncnc(Nc4ccc(Oc5ccc6c(c5)nnn6C)c(C)c4)c3n2)CC1` [Compound 123, N-(1-(8-((3-methyl-4-((1-methyl-1H-benzo[d][1,2,3]triazol-5-yl)oxy)phenyl)amino)pyrimido[5,4-d]pyrimidin-2-yl)piperidin-4-yl)acrylamide] the pIC50 [1] was 6.30 to 7.00 and the pIC50 [2] was 6.30 to 7.00.
Work on `C=CC(=O)N1CCN(c2ncc3ncnc(Nc4ccc(Oc5cc6ncn(C)c6nc5C)c(C)c4)c3n2)CC1` [Compound 135, 1-(4-(8-((4-((3,5-dimethyl-3H-imidazo[4,5-b]pyridin-6-yl)oxy)-3-methylphenyl)amino)pyrimido[5,4-d]pyrimidin-2-yl)piperazin-1-yl)prop-2-en-1-one] yielded a pIC50 [1] of 7.00 to 7.30 and a pIC50 [2] of 6.30 to 7.00.
`C=CC(=O)N1CCN(c2ncc3ncnc(Nc4ccc(Oc5ccc6c(c5)nnn6C(F)F)c(C)c4)c3n2)CC1` [Compound 63, 1-(4-(8-((4-((1-(difluoromethyl)-1H-benzo[d][1,2,3]triazol-5-yl)oxy)-3-methylphenyl)amino)pyrimido[5,4-d]pyrimidin-2-yl)piperazin-1-yl)prop-2-en-1-one] gave a pIC50 [1] of 7.00 to 7.30 and a pIC50 [2] of over 7.30.
In the case of `C=CC(=O)N1CCN(c2ncc3ncnc(Nc4ccc(Oc5cc6nnn(C)c6c(C)c5F)c(C)c4F)c3n2)C[C@H]1C` [Compound 180, (R)-1-(4-(8-((2-fluoro-4-((6-fluoro-1,7-dimethyl-1H-benzo[d][1,2,3]triazol-5-yl)oxy)-3-methylphenyl)amino)pyrimido[5,4-d]pyrimidin-2-y1)-2-methylpiperazin-1-yl)prop-2-en-1-one], the pIC50 [1] was 7.00 to 7.30 and the pIC50 [2] was 7.00 to 7.30.
`C=CC(=O)N1CCC12CN(c1ncc3ncnc(Nc4ccc(Oc5ccc6c(c5)nnn6C)c(C)c4F)c3n1)C2` [Compound 67, 1-(6-(8-((2-fluoro-3-methyl-4-((1-methyl-1H-benzo[d][1,2,3]triazol-5-yl)oxy)phenyl)amino)pyrimido[5,4-d]pyrimidin-2-yl)-1,6-diazaspiro[3.3]heptan-1-yl)prop-2-en-1-one] was tested, and the pIC50 [1] was 6.30 to 7.00 and the pIC50 [2] was 6.30 to 7.00.
`C=CC(=O)N1CC[C@H]2CN(c3ncc4ncnc(Nc5ccc(Oc6ccc7c(c6)nnn7C)c(C)c5)c4n3)C[C@H]21` [Compound 149, 1-((3aS,6aS)-5-(8-((3-methyl-4-((1-methyl-1H-benzo[d][1,2,3]triazol-5-yl)oxy)phenyl)amino)pyrimido [5,4-d]pyrimidin-2-yl)hexahydropyrrolo[3,4-b]pyrrol-1(2H)-y1)prop-2-en-1-one] gave a pIC50 [1] of 6.30 to 7.00 and a pIC50 [2] of 6.00 to 6.30.
For `C=CC(=O)N(C)C1CN(c2ncc3ncnc(Nc4ccc(Oc5ccc6c(c5)nnn6C)c(C)c4)c3n2)C1` [Compound 26, N-methyl-N-(1-(8-((3-methyl-4-((1-methyl-1H-benzo[d][1,2,3]triazol-5-yl)oxy)phenyl)amino)pyrimido[5,4-d]pyrimidin-2-yl)azetidin-3-yl)acrylamide], the pIC50 [1] was 6.30 to 7.00 and the pIC50 [2] was 6.30 to 7.00.
Work on `C=CC(=O)N[C@@H]1CCCN(c2ccc3ncnc(Nc4cc(C)c(Oc5ccc6c(c5)nnn6C)cc4OC)c3n2)C1` [Compound 274, (R)-N-(1-(4-((2-methoxy-5-methyl-4-((1-methyl-1H-benzo[d][1,2,3]triazol-5-yl)oxy)phenyl)amino)pyrido[3,2-d]pyrimidin-6-yl)piperidin-3-yl)acrylamide] yielded a pIC50 [1] of 6.00 to 6.30 and a pIC50 [2] of at most 6.00.
With `C=CC(=O)N1CCN(c2ncc3ncnc(Nc4ccc(Oc5ccc6c(c5)nnn6C)c(C)c4)c3n2)C[C@H]1CC` [Compound 119, (R)-1-(2-ethyl-4-(8-((3-methyl-4-((1-methyl-1H-benzo[d][1,2,3]triazol-5-yl)oxy)phenyl)amino)pyrimido[5,4-d]pyrimidin-2-y1)piperazin-1-yl)prop-2-en-1-one] the pIC50 [1] was 6.30 to 7.00 and the pIC50 [2] was 6.00 to 6.30.
Work on `C=CC(=O)N1CCN(c2ccc3ncnc(Nc4ccc(Oc5ccc6c(c5)ncn6C(F)F)c(C)c4F)c3n2)CC1(C)C` [Compound 321, 1-(4-(4-((4-((1-(difluoromethyl)-1H-benzo[d]imidazol-5-yl)oxy)-2-fluoro-3-methylphenyl)amino)pyrido[3,2-d]pyrimidin-6-y1)-2,2-dimethylpiperazin-1-yl)prop-2-en-1-one] yielded a pIC50 [1] of 6.30 to 7.00 and a pIC50 [2] of 6.00 to 6.30.
`C=CC(=O)N1CC2(CC(N(C)c3ncc4ncnc(Nc5ccc(Oc6ccc7c(c6)nnn7C)c(C)c5)c4n3)C2)C1` [Compound 124, 1-(6-(methyl(8-((3-methyl-4-((1-methyl-1H-benzo[d][1,2,3]triazol-5-yl)oxy)phenyl)amino)pyrimido [5,4-d]pyrimidin-2-yl)amino)-2-azaspiro[3.3]heptan-2-yl)prop-2-en-1-one] showed a pIC50 [1] of 7.00 to 7.30 and a pIC50 [2] of 6.30 to 7.00.
Compound `C=CC(=O)N1CCN(c2ccc3ncnc(Nc4ccc(Oc5ccc6c(c5)nnn6C(F)F)c(C)c4)c3n2)C[C@H]1C` [Compound 320, (R)-1-(4-(4-((4-((1-(difluoromethyl)-1H-benzo[d][1,2,3]triazol-5-yl)oxy)-3-methylphenyl)amino)pyrido[3,2-d]pyrimidin-6-yl)-2-methylpiperazin-1-yl)prop-2-en-1-one] has a pIC50 [1] of 6.30 to 7.00 and a pIC50 [2] of 6.30 to 7.00.
`C=CC(=O)N1C2C=C(c3ccc4ncnc(Nc5ccc(Oc6ccc7c(c6)nnn7C)c(C)c5)c4n3)CC1CC2` (stereo not shown) [Compound 409, 1-(3-(4-((3-methyl-4-((1-methyl-1H-benzo[d][1,2,3]triazol-5-yl)oxy)phenyl)amino)pyrido[3,2-d]pyrimidin-6-yl)-8-azabicyclo[3.2.1]oct-2-en-8-yl)prop-2-en-1-one trifluoroacetate] showed a pIC50 [1] of 7.00 to 7.30 and a pIC50 [2] of 6.30 to 7.00.
Compound `C=CC(=O)N[C@@H]1CCCN(c2ccc3ncnc(Nc4ccc(Oc5ccc6c(c5)nnn6C)c(C)c4F)c3n2)C1` [Compound 260, (R)-N-(1-(4-((2-fluoro-3-methyl-4-((1-methyl-1H-benzo[d][1,2,3]triazol-5-yl)oxy)phenyl)amino)pyrido[3,2-d]pyrimidin-6-yl)piperidin-3-yl)acrylamide] has a pIC50 [1] of 6.30 to 7.00 and a pIC50 [2] of 6.30 to 7.00.
For `C=CC(=O)N1CCN(c2ccc3ncnc(Nc4ccc(Oc5ccc6c(c5)ncn6C(F)F)c(C)c4F)c3n2)C[C@H]1C` [Compound 253, (R)-1-(4-(4-((4-((1-(difluoromethyl)-1H-benzo[d]imidazol-5-yl)oxy)-2-fluoro-3-methylphenyl)amino)pyrido[3,2-d]pyrimidin-6-yl)-2-methylpiperazin-1-yl)prop-2-en-1-one], the pIC50 [1] was 7.00 to 7.30 and the pIC50 [2] was 6.30 to 7.00.
Compound `C=CC(=O)N1CCN(c2ncc3ncnc(Nc4ccc(Oc5ccc6c(c5)nnn6CC)c(C)c4)c3n2)CC1` [Compound 133, 1-(4-(8-((4-((1-ethyl-1H-benzo[d][1,2,3]triazol-5-yl)oxy)-3-methylphenyl)amino)pyrimido[5,4-d]pyrimidin-2-y1)piperazin-1-yl)prop-2-en-1-one] has a pIC50 [1] of 6.30 to 7.00 and a pIC50 [2] of 6.00 to 6.30.
With `C=CC(=O)N1CC2CC(C1)N2c1ncc2ncnc(Nc3ccc(Oc4ccc5c(c4)nnn5C)c(C)c3)c2n1` [Compound 16, 1-(6-(8-((3-methyl-4-((1-methyl-1H-benzo[d][1,2,3]triazol-5-yl)oxy)phenyl)amino)pyrimido[5,4-d]pyrimidin-2-yl)-3,6-diazabicyclo[3.1.1]heptan-3-yl)prop-2-en-1-one] the pIC50 [1] was 6.30 to 7.00 and the pIC50 [2] was 6.30 to 7.00.
`C=CC(=O)N1CCN(c2ncc3ncnc(Nc4ccc(Oc5cnc6c(c5)ncn6C(F)F)c(C)c4F)c3n2)C[C@H]1C` [Compound 177, (R)-1-(4-(8-((4-((3-(difluoromethyl)-3H-imidazo[4,5-b]pyridin-6-yl)oxy)-2-fluoro-3-methylphenyl)amino)pyrimido[5,4-d]pyrimidin-2-y1)-2-methylpiperazin-1-yl)prop-2-en-1-one] gave a pIC50 [1] of 6.30 to 7.00 and a pIC50 [2] of over 7.30.

Source: patent US20250129078A1, “ERBB2 INHIBITORS” (Cogent Biosciences, Inc., priority 2023, published 2025)
